Columns and labels:
Type in all cases: in vivo
Settings in all cases: evaluated after 13 days
[1] = tested on: Amaranthus retoflexus (AMARE); test: Pre-emergence Test (Table B1), AMARE
Zea mays (ZEAMX) [2] = test: Pre-emergence Test (Table B1), ZEAMX
Zea mays (ZEAMX) [3] = test: Post-emergence Test (Table B2), ZEAMX; design: key: 5-point damage scale: 5=81-100%, 4=61-80%, 3=41-60%, 2=21-40%, 1=0-20%
Method: Seeds of a variety of test species are sown in standard soil in pots (Ipomoea hederacea (IPOHE), Zea mays (ZEAMX), Echinochloa crus-galli (ECHCG), Amaranthus palmeri (AMAPA), (Amaranthus retoflexus (AMARE), and (Setaria faberi (SETFA)). After 8 days cultivation under controlled conditions in a glasshouse (at 24° C./16° C., day/night; 14 hours light; 65% humidity), the plants are sprayed with an aqueous spray solution derived from the formulation of the technical active ingredient in acetone/water (50:50) solution containing 0.5% Tween 20 (polyoxyethelyene sorbitan monolaurate, CAS RN 9005-64-5). Rate of application is shown in g/ha in the tables below. The test plants are then grown in a glasshouse under controlled conditions in a glasshouse (at 24° C./16° C., day/night; 14 hours light; 65% humidity) and watered twice daily. After 13 days the test is evaluated for the percentage damage caused to the plant. The biological activities are shown in the following table on a five-point scale (5=81-100%; 4=61-80%; 3=41-60%; 2=21-40%; 1=0-20%; -=not tested).

[4] = tested on: Amaranthus palmeri (AMAPA); test: Pre-emergence Test (Table B1), AMAPA

CCn1c(Cc2cc(F)cc(F)c2)cc(=O)c(C(=O)O)c1-c1ccc(Cl)c(Cl)c1 [Compound 29, 2-(3,4-dichlorophenyl)-6-[(3,5-difluorophenyl)methyl]-1-ethyl-4-oxo-pyridine-3-carboxylic acid]
Pre-emergence Test, percentage damage caused to the plant (five-point scale), AMARE ([1]; Rate 1000 g/Ha): 0 | Pre-emergence Test, percentage damage caused to the plant (five-point scale), ZEAMX (Zea mays (ZEAMX) [2]; Rate 1000 g/Ha): 0 | percentage damage caused to the plant, ZEAMX (Zea mays (ZEAMX) [3]; rate 1000 g/Ha): 0 | Pre-emergence Test, percentage damage caused to the plant (five-point scale), AMAPA ([4]; Rate 1000 g/Ha): 0

CCn1c(Cc2cccc(OC(F)(F)F)c2)cc(=O)c(C(=O)O)c1-c1ccc(Cl)c(Cl)c1 [Compound 30, 2-(3,4-dichlorophenyl)-1-ethyl-4-oxo-6-[[3-(trifluoromethoxy)phenyl]methyl]pyridine-3-carboxylic acid]
percentage damage caused to the plant, ZEAMX (Zea mays (ZEAMX) [3]; rate 1000 g/Ha): 0

CCn1c(Cc2cc(C(F)F)ccn2)cc(=O)c(C(=O)O)c1-c1ccc(Cl)c(Cl)c1 [Compound 115, 2-(3,4-dichlorophenyl)-6-[[4-(difluoromethyl)-2-pyridyl]methyl]-1-ethyl-4-oxo-pyridine-3-carboxylic acid]
Pre-emergence Test, percentage damage caused to the plant (five-point scale), ZEAMX (Zea mays (ZEAMX) [2]; Rate 250 g/Ha): 0

CCn1c(Cc2cc(Cl)ccn2)cc(=O)c(C(=O)O)c1-c1ccc(Cl)c(Cl)c1 [Compound 117, 6-[(4-chloro-2-pyridyl)methyl]-2-(3,4-dichlorophenyl)-1-ethyl-4-oxo-pyridine-3-carboxylic acid]
Pre-emergence Test, percentage damage caused to the plant (five-point scale), ZEAMX (Zea mays (ZEAMX) [2]; Rate 62.5 g/Ha): 0 | percentage damage caused to the plant, ZEAMX (Zea mays (ZEAMX) [3]; rate 62.5 g/Ha): 0

CCn1c(Cc2ccn(C(F)F)n2)cc(=O)c(C(=O)O)c1-c1ccc(Cl)c(Cl)c1 [Compound 124, 2-(3,4-dichlorophenyl)-6-[[1-(difluoromethyl)pyrazol-3-yl]methyl]-1-ethyl-4-oxo-pyridine-3-carboxylic acid]
Pre-emergence Test, percentage damage caused to the plant (five-point scale), AMARE ([1]; Rate 62.5 g/Ha): 0 | Pre-emergence Test, percentage damage caused to the plant (five-point scale), ZEAMX (Zea mays (ZEAMX) [2]; Rate 62.5 g/Ha): 0 | Pre-emergence Test, percentage damage caused to the plant (five-point scale), AMAPA ([4]; Rate 62.5 g/Ha): 0

CCn1c(Cc2ncc(Cl)cn2)cc(=O)c(C(=O)O)c1-c1ccc(Cl)c(Cl)c1 [Compound 4, 6-[(5-chloropyrimidin-2-yl)methyl]-2-(3,4-dichlorophenyl)-1-ethyl-4-oxo-pyridine-3-carboxylic acid]
Pre-emergence Test, percentage damage caused to the plant (five-point scale), AMAPA ([4]; Rate 1000 g/Ha): 0

CCn1c(Cc2ccc(OC)nn2)cc(=O)c(C(=O)O)c1-c1ccc(Cl)c(Cl)c1 [Compound 133, 2-(3,4-dichlorophenyl)-1-ethyl-6-[(6-methoxypyridazin-3-yl)methyl]-4-oxo-pyridine-3-carboxylic acid]
Pre-emergence Test, percentage damage caused to the plant (five-point scale), ZEAMX (Zea mays (ZEAMX) [2]; Rate 250 g/Ha): 0

CCn1c(Cc2ccon2)cc(=O)c(C(=O)O)c1-c1ccc(Cl)c(Cl)c1 [Compound 149, 2-(3,4-dichlorophenyl)-1-ethyl-6-(isoxazol-3-ylmethyl)-4-oxo-pyridine-3-carboxylic acid]
Pre-emergence Test, percentage damage caused to the plant (five-point scale), ZEAMX (Zea mays (ZEAMX) [2]; Rate 250 g/Ha): 0 | percentage damage caused to the plant, ZEAMX (Zea mays (ZEAMX) [3]; rate 250 g/Ha): 0

CCn1c(Cc2ccnc(C(F)(F)F)n2)cc(=O)c(C(=O)O)c1-c1ccc(Cl)c(Cl)c1 [Compound 141, 2-(3,4-dichlorophenyl)-1-ethyl-4-oxo-6-[[2-(trifluoromethyl)pyrimidin-4-yl]methyl]pyridine-3-carboxylic acid]
Pre-emergence Test, percentage damage caused to the plant (five-point scale), ZEAMX (Zea mays (ZEAMX) [2]; Rate 250 g/Ha): 0 | Pre-emergence Test, percentage damage caused to the plant (five-point scale), AMAPA ([4]; Rate 250 g/Ha): 0

CCn1c(Cc2ccc(F)cc2)cc(=O)c(C(=O)O)c1-c1ccc(Cl)c(Cl)c1 [Compound 12, 2-(3,4-dichlorophenyl)-1-ethyl-6-[(4-fluorophenyl)methyl]-4-oxo-pyridine-3-carboxylic acid]
Pre-emergence Test, percentage damage caused to the plant (five-point scale), AMARE ([1]; Rate 1000 g/Ha): 0 | percentage damage caused to the plant, ZEAMX (Zea mays (ZEAMX) [3]; rate 1000 g/Ha): 0

CCn1c(Cc2ccc(Cl)nc2)cc(=O)c(C(=O)O)c1-c1ccc(Cl)c(Cl)c1 [Compound 129, 6-[(6-chloro-3-pyridyl)methyl]-2-(3,4-dichlorophenyl)-1-ethyl-4-oxo-pyridine-3-carboxylic acid]
percentage damage caused to the plant, ZEAMX (Zea mays (ZEAMX) [3]; rate 250 g/Ha): 0 | Pre-emergence Test, percentage damage caused to the plant (five-point scale), AMAPA ([4]; Rate 250 g/Ha): 0

CCn1c(Cc2ccnc(F)c2)cc(=O)c(C(=O)O)c1-c1ccc(Cl)c(Cl)c1 [Compound 44, 2-(3,4-dichlorophenyl)-1-ethyl-6-[(2-fluoro-4-pyridyl)methyl]-4-oxo-pyridine-3-carboxylic acid]
Pre-emergence Test, percentage damage caused to the plant (five-point scale), ZEAMX (Zea mays (ZEAMX) [2]; Rate 250 g/Ha): 0

CCn1c(Cc2nc(Cl)ccc2COC)cc(=O)c(C(=O)O)c1-c1ccc(Cl)c(Cl)c1 [Compound 105, 6-[[6-chloro-3-(methoxymethyl)-2-pyridyl]methyl]-2-(3,4-dichlorophenyl)-1-ethyl-4-oxo-pyridine-3-carboxylic acid]
Pre-emergence Test, percentage damage caused to the plant (five-point scale), AMARE ([1]; Rate 250 g/Ha): 0 | Pre-emergence Test, percentage damage caused to the plant (five-point scale), AMAPA ([4]; Rate 250 g/Ha): 0

CCn1c(Cc2ccn(CC(C)C)n2)cc(=O)c(C(=O)O)c1-c1ccc(Cl)c(Cl)c1 [Compound 121, 2-(3,4-dichlorophenyl)-1-ethyl-6-[(1-isobutylpyrazol-3-yl)methyl]-4-oxo-pyridine-3-carboxylic acid]
Pre-emergence Test, percentage damage caused to the plant (five-point scale), ZEAMX (Zea mays (ZEAMX) [2]; Rate 250 g/Ha): 0

CCn1c(Cc2cccc(C(F)(F)F)n2)cc(=O)c(C(=O)O)c1-c1ccc(Cl)c(Cl)c1 [Compound 39, 2-(3,4-dichlorophenyl)-1-ethyl-4-oxo-6-[[6-(trifluoromethyl)-2-pyridyl]methyl]pyridine-3-carboxylic acid]
Pre-emergence Test, percentage damage caused to the plant (five-point scale), AMAPA ([4]; Rate 1000 g/Ha): 0

CCn1c(Cc2ccc(F)c(OC)c2)cc(=O)c(C(=O)O)c1-c1ccc(Cl)c(Cl)c1 [Compound 95, 2-(3,4-dichlorophenyl)-1-ethyl-6-[(4-fluoro-3-methoxy-phenyl)methyl]-4-oxo-pyridine-3-carboxylic acid]
Pre-emergence Test, percentage damage caused to the plant (five-point scale), AMARE ([1]; Rate 1000 g/Ha): 0 | Pre-emergence Test, percentage damage caused to the plant (five-point scale), ZEAMX (Zea mays (ZEAMX) [2]; Rate 1000 g/Ha): 0 | Pre-emergence Test, percentage damage caused to the plant (five-point scale), AMAPA ([4]; Rate 1000 g/Ha): 0

CCn1c(Cc2ccn(C3CC3)n2)cc(=O)c(C(=O)O)c1-c1ccc(Cl)c(Cl)c1 [Compound 54, 6-[(1-cyclopropylpyrazol-3-yl)methyl]-2-(3,4-dichlorophenyl)-1-ethyl-4-oxo-pyridine-3-carboxylic acid]
Pre-emergence Test, percentage damage caused to the plant (five-point scale), AMARE ([1]; Rate 1000 g/Ha): 0 | Pre-emergence Test, percentage damage caused to the plant (five-point scale), AMAPA ([4]; Rate 1000 g/Ha): 0

CCn1c(Cc2ccc(C(F)F)nn2)cc(=O)c(C(=O)O)c1-c1ccc(Cl)c(Cl)c1 [Compound 108, 2-(3,4-dichlorophenyl)-6-[[6-(difluoromethyl)-pyridazin-3-yl]methyl]-1-ethyl-4-oxo-pyridine-3-carboxylic acid]
Pre-emergence Test, percentage damage caused to the plant (five-point scale), AMARE ([1]; Rate 1000 g/Ha): 0 | Pre-emergence Test, percentage damage caused to the plant (five-point scale), ZEAMX (Zea mays (ZEAMX) [2]; Rate 1000 g/Ha): 0 | Pre-emergence Test, percentage damage caused to the plant (five-point scale), AMAPA ([4]; Rate 1000 g/Ha): 0

CCn1c(Cc2cccc(C#N)n2)cc(=O)c(C(=O)O)c1-c1ccc(Cl)c(Cl)c1 [Compound 57, 6-[(6-cyano-2-pyridyl)methyl]-2-(3,4-dichlorophenyl)-1-ethyl-4-oxo-pyridine-3-carboxylic acid]
percentage damage caused to the plant, ZEAMX (Zea mays (ZEAMX) [3]; rate 1000 g/Ha): 0

CCn1c(Cc2ccc(C)c(Cl)n2)cc(=O)c(C(=O)O)c1-c1ccc(Cl)c(Cl)c1 [Compound 97, 6-[(6-chloro-5-methyl-2-pyridiyl)methyl]-2-(3,4-dichlorophenyl)-1-ethyl-4-oxo-pyridine-3-carboxylic acid]
Pre-emergence Test, percentage damage caused to the plant (five-point scale), AMARE ([1]; Rate 1000 g/Ha): 0 | Pre-emergence Test, percentage damage caused to the plant (five-point scale), AMAPA ([4]; Rate 1000 g/Ha): 0

CCn1c(Cc2cccc(C(C)F)n2)cc(=O)c(C(=O)O)c1-c1ccc(Cl)c(Cl)c1 (stereo not shown) [Compound 147, 2-(3,4-dichlorophenyl)-1-ethyl-6-[[6-(1-fluoroethyl)-2-pyridyl]methyl]-4-oxo-pyridine-3-carboxylic acid]
Pre-emergence Test, percentage damage caused to the plant (five-point scale), AMAPA ([4]; Rate 250 g/Ha): 0

CCn1c(Cc2ccc(OC)cc2C(F)(F)F)cc(=O)c(C(=O)O)c1-c1ccc(Cl)c(Cl)c1 [Compound 65, 2-(3,4-dichlorophenyl)-1-ethyl-6-[[4-methoxy-2-(trifluoromethyl)phenyl]methyl]-4-oxo-pyridine-3-carboxylic acid]
Pre-emergence Test, percentage damage caused to the plant (five-point scale), ZEAMX (Zea mays (ZEAMX) [2]; Rate 1000 g/Ha): 0

CCn1c(Cc2nccs2)cc(=O)c(C(=O)O)c1-c1ccc(Cl)c(Cl)c1 [Compound 19, 2-(3,4-dichlorophenyl)-1-ethyl-4-oxo-6-(thiazol-2-ylmethyl)pyridine-3-carboxylic acid]
Pre-emergence Test, percentage damage caused to the plant (five-point scale), AMARE ([1]; Rate 1000 g/Ha): 0 | Pre-emergence Test, percentage damage caused to the plant (five-point scale), AMAPA ([4]; Rate 1000 g/Ha): 0

CCn1c(Cc2cccc(Cl)c2)cc(=O)c(C(=O)O)c1-c1ccc(Cl)c(Cl)c1 [Compound 1, 6-[(3-chlorophenyl)methyl]-2-(3,4-dichlorophenyl)-1-ethyl-4-oxo-pyridine-3-carboxylic acid]
percentage damage caused to the plant, ZEAMX (Zea mays (ZEAMX) [3]; rate 1000 g/Ha): 0

CCn1c(Cc2cccc(Br)n2)cc(=O)c(C(=O)O)c1-c1ccc(Cl)c(Cl)c1 [Compound 138, 6-[(6-bromo-2-pyridyl)methyl]-2-(3,4-dichlorophenyl)-1-ethyl-4-oxo-pyridine-3-carboylic acid]
Pre-emergence Test, percentage damage caused to the plant (five-point scale), ZEAMX (Zea mays (ZEAMX) [2]; Rate 250 g/Ha): 0
